# From patent US10222370B2, “Screening assay for choice of prebiotic to prevent/treat gastrointestinal and systemic diseases” (Rush University Medical Center, priority 2014, dated 2019)
# Entries after “also recorded” stand apart in the source; their conditions may differ.
# Tests used:
# Assay type in all cases: cell-based, human
# [1] = tested on: T84 monolayers co-cultured with CD3/28-activated PBMC; assay: T84/PBMC co-culture, barrier integrity by transepithelial electrical resistance (TER); details: for TER of T84 monolayers: apical exposure, 24 h and 48 h, vs medium control; for PBMC-induced disruption of intestinal epithelial barrier integrity (injurious effects of activated PBMC): PBMC from food allergy patients, agonist on apical side of T84 cells, FIG. 3
# Method: (§1) The T84 cells are grown in DMEM/F-12 (1:1) supplemented with GlutaMAX®, 10% fetal bovine serum and […] penicillin/streptomycin. (T84 cells (human colorectal carcinoma cell line, ATCC® CCL-248™, Manassas, Va., USA). T84 cells were seeded in 12-well transwell insert filters (Coming Inc., NY, USA) and cultured in T84 cell medium for 3-4 weeks till co-culture with PBMC. Transepithelial electrical resistance (TER) was measured during culture, which generally increases to >1500 Ω×cm^2 and becomes stable after 3-4 weeks of culture. When TER was ≥2000 Ω×cm^2, T84 monolayers 14 were co-cultured with 1.5×10^6 PBMC 16 in the basolateral chamber.
# (§2) The PBMC 16 for use in the co-cultures are isolated from 20 mL fresh blood from healthy controls (n=6) and subjects with food allergy (n=8) (Table 1). The average age of healthy controls was 36 (range 24-54) vs. 51 (range 26-74) for food allergic subjects (P>0.05). PBMC were isolated by density gradient centrifugation using lymphocyte separation medium according to manufacturer's protocol (Cellgro, Mediatec, Inc., Manassas, Va., USA). PBMC were collected in RPMI1640 supplemented with L-glutamine (Gibco), 2.5% fetal bovine serum, 1% penicillin/streptomycin and 1% sodium pyruvate (Sigma, St. Louis, Mo., USA) (PBMC medium) at 1×10^6 cell/mL.
# (§3) T84/PBMC co-cultures were maintained in PBMC medium. PBMC were stimulated using CD3 and CD28 antibodies (clone OKT3 and CD28.2, 0.2 μg/mL; eBioscience, San Diego, Calif., USA) and simultaneously IEC were stimulated apically with Pam3CSK4, LPS or type C CpG oligonucleotide M362 (Invivogen, San Diego, Calif., USA) as previously described. Cultures were maintained at 37° C./5% CO2 for indicated time points.
# (§4) The barrier integrity of T84 monolayers was assessed by measuring the TER and paracellular permeability to 4 kDa FITC-dextran. In short, TER was measured using a dual electrode system designed for cell culture insert analysis (EVOM; World Precision Instruments, Sarasota, Fla.) prior to co-culture and at indicated time points during co-culture. Data is reported as percentage of the initial TER value measured before co-culture. For assessment of permeability, T84 monolayers were separated from PBMC and cultured in PBMC medium for 1 h. The monolayers were then apically exposed to 1 mg/mL 4 kDa FITC-dextran (Sigma) and basolateral supernatants were collected after 60 min. FITC-dextran was measured at excitation wavelength 485 nm and emission wavelength 520 nm. The 4 kDa FITC-dextran flux was expressed as pmol/(h×cm^2).
# In some experiments, PBMC are stimulated using antibodies against CD3 and CD28 and T84 cell monolayers were simultaneously exposed to synthetic TLR ligands or fermentation product 12 (co-culture of stool samples without or with different prebiotics). SCFA content (acetate, propionate and butyrate) in the fermentation products (“Fermenta”) 12 was analyzed by HPLC. TER was measured at t=0 h, t=4 h, t=18 h and t=24 h to monitor changes in the barrier integrity of the T84 monolayers. Non-limiting example of prebiotics include commercially available inulin and fructose oligosaccharides (FOS) that promote production of Butyrate by intestinal bacteria, galactose oligosaccharides (GOS) that promote growth of bifidobacteria in the intestine or prebiotics like resistant starch, corn arbionoxylan that promotes propionate. Other prebiotics may also be used.
# [2] = tested on: T84 monolayers co-cultured with CD3/28-activated PBMC; assay: T84/PBMC co-culture, paracellular permeability to 4 kDa FITC-dextran; details: 48 h co-culture, vs medium control
# Method: as §1, §2
# T84/PBMC co-cultures were maintained in PBMC medium. […]
# as §4, with “For assessment of permeability, T84 monolayers were separated from PBMC and cultured in PBMC medium for 1 h. The monolayers were then apically exposed to 1 mg/mL 4 kDa FITC-dextran (Sigma) and basolateral supernatants were collected after 60 min.” left out
# T84/PBMC co-cultures = assay: Cytokine production in T84/PBMC co-cultures with apical TLR ligands (ELISA); details: for IL-6 / IFN-γ / IL-8 / IL-10 / IL-13 / TNF-α: T84/PBMC, mean ± SEM; for IL-6 / IFN-γ / IL-8 / IL-10 / IL-13 / TNF-α / IFN-γ/IL-13 ratio: 24 h; for IL-10/IL-13 ratio / IFN-γ/IL-13 ratio / IL-10/IFN-γ: T84/PBMC co-cultures; for IL-10/IL-13 ratio / IFN-γ/IL-13 ratio: vs medium; for IL-10/IFN-γ: apical exposure
# Method: as §1, §2, §3
# (§5) Cytokine levels were measured by ELISA. IL-6, IL-8, IL-10, IL-13, IFN-γ and TNF-α were measured using the Ready-Set-Go!® ELISA kit from eBioscience according to manufacturer's protocol (eBioscience, Inc., San Diego, Calif., USA).
# (§6) To evaluate whether epithelial TLR ligation modulates cytokine production by the PBMC, basolateral supernatants were collected 24 h after co-culture. Exposure of CD3/28-activated PBMC in the absence of IEC to TLR ligands served as a control to evaluate the contribution of IEC in modulating the cytokine production by PBMC. First we evaluated the production of IFN-γ and IL-13 as a reflection of a Th1 and Th2 type effector response (Table 3). No significant changes in the production of IFN-γ or IL-13 were observed, though IFN-γ production by the PBMC from food allergic subjects tended to be lower in T84/PBMC co-cultures (P=0.093). […] This was not observed when PBMC were stimulated with CpG DNA in absence of T84 cells (FIG. 7B).
# PBMC = assay: Cytokine production by CD3/28-activated PBMC in absence of T84 cells (ELISA); details: for IFN-γ / IL-6 / IL-8 / IL-10 / IL-13 / TNF-α / IFN-γ/IL-13 ratio: PBMC in absence of T84 cells, 24 h; for IFN-γ / IL-6 / IL-8 / IL-10 / IL-13 / TNF-α: mean ± SEM; for IL-10/IL-13 ratio: absence of T84 cells
# Method: as §2, §3, §5, §6
# [3] = PBMC from food allergic subjects
substance,measurement,setting,value
Pam3CSK4,TER of T84 monolayers,[1]; [3],did not affect
same,TER of T84 monolayers,[1]; PBMC from healthy controls,did not affect
same,permeability of T84 monolayers to 4 kDa FITC-dextran,[2]; PBMC from healthy controls,increased the permeability
same,IL-6,T84/PBMC co-cultures; FA (food allergy) PBMC,5968 ± 1324 pg/mL
same,IFN-γ,T84/PBMC co-cultures; FA PBMC,6533 ± 2125 pg/mL
same,IL-8,T84/PBMC co-cultures; FA PBMC,16854 ± 4954 pg/mL
same,IL-10,T84/PBMC co-cultures; FA PBMC,853.3 ± 212.9 pg/mL
same,IL-13,T84/PBMC co-cultures; FA PBMC,40.8 ± 12.1 pg/mL
same,TNF-α,T84/PBMC co-cultures; FA PBMC,2251 ± 534 pg/mL
same,IL-6,T84/PBMC co-cultures; HC (healthy control) PBMC,7209 ± 1531 pg/mL
same,IFN-γ,T84/PBMC co-cultures; HC PBMC,8614 ± 2455 pg/mL
same,IL-8,T84/PBMC co-cultures; HC PBMC,23052 ± 5527 pg/mL
same,IL-10,T84/PBMC co-cultures; HC PBMC,581.1 ± 110.7 pg/mL
same,IL-13,T84/PBMC co-cultures; HC PBMC,37.8 ± 9.2 pg/mL
same,TNF-α,T84/PBMC co-cultures; HC PBMC,3073 ± 509 pg/mL
same,IFN-γ,PBMC; FA,2824 ± 1163 pg/mL
same,IL-6,PBMC; FA,8073 ± 2055 pg/mL
same,IL-8,PBMC; FA,32940 ± 4869 pg/mL
same,IL-10,PBMC; FA,422.8 ± 98.6 pg/mL
same,IL-13,PBMC; FA,59.4 ± 15.2 pg/mL
same,TNF-α,PBMC; FA,979.1 ± 244^ pg/mL
same,IFN-γ,PBMC; HC,5663 ± 1768 pg/mL
same,IL-6,PBMC; HC,9472 ± 2153 pg/mL
same,IL-8,PBMC; HC,43737 ± 2856 pg/mL
same,IL-10,PBMC; HC,254.7 ± 135.4 pg/mL
same,IL-13,PBMC; HC,59.2 ± 17.0 pg/mL
same,TNF-α,PBMC; HC,2206 ± 1155 pg/mL
type C CpG oligonucleotide M362 [CpG DNA],TER of T84 monolayers,[1]; [3],prevented PBMC-induced barrier disruption; also recorded: increased
same,PBMC-induced disruption of intestinal epithelial barrier integrity (injurious effects of activated PBMC),[1]; listed as TLR9 agonist,prevented
same,PBMC-induced disruption of intestinal epithelial barrier integrity (injurious effects of activated PBMC),[1]; listed as TLR-9 agonist,significantly blunted
same,TER of T84 monolayers,[1]; PBMC from healthy controls,prevented PBMC-induced barrier disruption; also recorded: increased
same,permeability of T84 monolayers to 4 kDa FITC-dextran,[2]; [3],reduced epithelial permeability
same,"production of IL-6, IL-8 and TNF-α by PBMC","T84/PBMC co-cultures; T84/PBMC co-culture, PBMC from both healthy controls and food allergic subjects, in words",suppressed
same,IL-10/IL-13 ratio,T84/PBMC co-cultures; PBMC from food allergic patients,significantly increased
same,IFN-γ/IL-13 ratio,T84/PBMC co-cultures; food allergic subjects,enhanced; also recorded: increased
same,IL-10/IFN-γ,T84/PBMC co-cultures; food allergic subjects,0.19±0.06
same,IFN-γ/IL-13 ratio,T84/PBMC co-cultures; healthy controls,enhanced; also recorded: increased
same,IL-10/IFN-γ,T84/PBMC co-cultures; healthy controls,0.12±0.06
same,IL-10/IL-13 ratio,T84/PBMC co-cultures; healthy donor PBMC,tended to increase
same,IL-6,T84/PBMC co-cultures; FA (food allergy) PBMC,6400 ± 1671 pg/mL
same,IFN-γ,T84/PBMC co-cultures; FA PBMC,7040 ± 2454 pg/mL
same,IL-8,T84/PBMC co-cultures; FA PBMC,15733 ± 4509 pg/mL
same,IL-10,T84/PBMC co-cultures; FA PBMC,834 ± 233.6 pg/mL
same,IL-13,T84/PBMC co-cultures; FA PBMC,35.9 ± 10.5 pg/mL
same,TNF-α,T84/PBMC co-cultures; FA PBMC,2092 ± 493 pg/mL
same,IL-6,T84/PBMC co-cultures; HC (healthy control) PBMC,7291 ± 1376 pg/mL
same,IFN-γ,T84/PBMC co-cultures; HC PBMC,10731 ± 3289 pg/mL
same,IL-8,T84/PBMC co-cultures; HC PBMC,20758 ± 5247 pg/mL
same,IL-10,T84/PBMC co-cultures; HC PBMC,652.8 ± 105.5 pg/mL
same,IL-13,T84/PBMC co-cultures; HC PBMC,27.5 ± 7.5 pg/mL
same,TNF-α,T84/PBMC co-cultures; HC PBMC,2531 ± 552 pg/mL
same,Th1/Th2 balance of the effector immune response,"T84/PBMC co-cultures; apical exposure of T84 monolayers, FIG. 4, listed as TLR9 agonist",shifts the balance of the effector immune response away from the allergy-associated Th2 response; also recorded: reversed the Th1/Th2 balance away from the allergic TH2 phenotype
same,IFN-γ,PBMC; FA,3945 ± 1543 pg/mL
same,IL-6,PBMC; FA,5940 ± 2450 pg/mL
same,IL-8,PBMC; FA,25420 ± 6779 pg/mL
same,IL-10,PBMC; FA,477.3 ± 157.7 pg/mL
same,IL-13,PBMC; FA,39.9 ± 12.8 pg/mL
same,TNF-α,PBMC; FA,1199 ± 437 pg/mL
same,IFN-γ,PBMC; HC,2394 ± 966 pg/mL
same,IL-6,PBMC; HC,2564 ± 824 pg/mL
same,IL-8,PBMC; HC,19912 ± 2430 pg/mL
same,IL-10,PBMC; HC,391.9 ± 149.3 pg/mL
same,IL-13,PBMC; HC,19.5 ± 3.8 pg/mL
same,TNF-α,PBMC; HC,1024 ± 213 pg/mL
same,IFN-γ/IL-13 ratio,PBMC; food allergic subjects,not observed
same,IFN-γ/IL-13 ratio,PBMC; healthy controls,not observed
same,IL-10/IL-13 ratio,PBMC; [3],did not affect
same,IL-10/IL-13 ratio,PBMC; PBMC from healthy controls,enhanced
same,"production of IL-6, IL8 and TNF-α","PBMC; direct stimulation of PBMC from food allergic subjects, in words",did not suppress
same,pro-inflammatory cytokine production,"PBMC; direct stimulation of PBMC from healthy controls, in words",reduced
